Reference: paper PMC11842024, “Reversible male contraception by targeted inhibition of serine/threonine kinase 33” (Science (New York, N.Y.), 2024)

Columns and labels:
[1] = molecular target: STK33 (Homo sapiens, UniProt Q9BYT3); assay: NanoBRET target engagement intracellular kinase assay; assay type: cell-based; design: host or cells: HEK293 (HEK293T cultured)
Protocol: (§1) NanoBRET Target Engagement intracellular kinase assay. HEK293T cells were cultured in […]
(§2) The cell line underwent authentication by short tandem repeat (STR) profiling at Cytogenetics and Cell Authentication Core (CCAC) at MD Anderson Cancer Center. NanoBRET Target Engagement intracellular kinase assay, K-10 assay (Cat. # N2641), K-9 assay (Cat. # N2631), transfection reagent FuGENE HD (Cat. # E2311), transfection carrier DNA (Cat. # E4881), NanoLuc-STK33 fusion vector (Cat. # NV2111), NanoLuc-RET fusion vector (Cat. # NV1951), NanoLuc-CLK1 fusion vector (Cat. # NV1131), NanoLuc-CLK2 fusion vector (Cat. # NV1141), and NanoLuc-CLK4 fusion vector (Cat. # NV1151) were purchased from Promega. The measurement of test compound engagement with cellular target protein was performed in a 384-well format according to manufacturer’s instructions. HEK293 cells were transiently transfected with NanoLuc (STK33, RET, CLK1, CLK2, and CLK4) fusion vectors. After 36 hours of transfection, cells were treated with a fixed concentration of tracer (recommended by Promega) followed by compounds (inhibitors) for 2 hours of incubation. To determine the test compound […]
(§3) 0.4 nM at a fixed tracer concentration. Staurosporine was measured in parallel as a positive control.
(§4) Freshly prepared NanoBRET Nano-Glo substrate plus extracellular NanoLuc inhibitor was then added to initiate the subsequent bioluminescence resonance energy transfer (BRET) measurements using a CLARIOstar Plus BMG LABTECH plate reader. Data analysis was done by measuring the ratio of acceptor emission to donor emission (BRET ratio) and normalized by subtracting no-tracer-control-background. IC50 values were obtained by nonlinear regression using a four-parameter equation in GraphPad Prism 7 (San Diego, CA).

[2] = molecular target: T1, RET (Homo sapiens, UniProt P07949); assay: as above; assay type: cell-based; design: host or cells: HEK293 (HEK293T cultured)
T1 sequence (P07949 29-1114): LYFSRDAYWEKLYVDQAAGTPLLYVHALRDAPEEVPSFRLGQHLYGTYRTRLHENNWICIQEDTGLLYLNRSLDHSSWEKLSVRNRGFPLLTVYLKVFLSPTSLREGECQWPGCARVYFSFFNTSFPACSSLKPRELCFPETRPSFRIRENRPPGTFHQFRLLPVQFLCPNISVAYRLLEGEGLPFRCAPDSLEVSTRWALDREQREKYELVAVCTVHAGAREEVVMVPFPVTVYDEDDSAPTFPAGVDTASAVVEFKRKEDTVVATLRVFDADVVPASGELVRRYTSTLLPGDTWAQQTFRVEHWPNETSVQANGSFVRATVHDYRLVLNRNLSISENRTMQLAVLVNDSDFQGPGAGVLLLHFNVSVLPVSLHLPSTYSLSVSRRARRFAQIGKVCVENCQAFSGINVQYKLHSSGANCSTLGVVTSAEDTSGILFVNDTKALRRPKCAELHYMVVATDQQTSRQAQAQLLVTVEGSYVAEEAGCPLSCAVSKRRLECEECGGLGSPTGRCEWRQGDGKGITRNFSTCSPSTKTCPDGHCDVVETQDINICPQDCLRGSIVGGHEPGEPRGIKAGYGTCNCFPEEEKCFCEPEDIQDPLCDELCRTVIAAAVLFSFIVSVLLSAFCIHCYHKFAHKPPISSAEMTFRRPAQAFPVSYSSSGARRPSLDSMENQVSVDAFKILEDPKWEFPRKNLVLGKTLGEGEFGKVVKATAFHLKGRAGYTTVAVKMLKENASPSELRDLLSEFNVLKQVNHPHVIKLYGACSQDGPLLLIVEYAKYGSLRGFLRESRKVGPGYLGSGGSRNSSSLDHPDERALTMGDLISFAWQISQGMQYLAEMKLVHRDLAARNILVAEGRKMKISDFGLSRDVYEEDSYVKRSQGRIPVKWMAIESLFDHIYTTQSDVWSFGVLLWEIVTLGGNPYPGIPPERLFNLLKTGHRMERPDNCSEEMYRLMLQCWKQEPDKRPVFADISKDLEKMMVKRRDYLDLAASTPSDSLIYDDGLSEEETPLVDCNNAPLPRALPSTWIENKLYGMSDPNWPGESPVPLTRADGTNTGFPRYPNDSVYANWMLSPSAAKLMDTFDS
Protocol: as §1, §2, §3, §4

[3] = molecular target: T2, CLK2 (Homo sapiens, UniProt P49760); assay: as above; assay type: cell-based; design: host or cells: HEK293 (HEK293T cultured)
T2 sequence (P49760 whole entry): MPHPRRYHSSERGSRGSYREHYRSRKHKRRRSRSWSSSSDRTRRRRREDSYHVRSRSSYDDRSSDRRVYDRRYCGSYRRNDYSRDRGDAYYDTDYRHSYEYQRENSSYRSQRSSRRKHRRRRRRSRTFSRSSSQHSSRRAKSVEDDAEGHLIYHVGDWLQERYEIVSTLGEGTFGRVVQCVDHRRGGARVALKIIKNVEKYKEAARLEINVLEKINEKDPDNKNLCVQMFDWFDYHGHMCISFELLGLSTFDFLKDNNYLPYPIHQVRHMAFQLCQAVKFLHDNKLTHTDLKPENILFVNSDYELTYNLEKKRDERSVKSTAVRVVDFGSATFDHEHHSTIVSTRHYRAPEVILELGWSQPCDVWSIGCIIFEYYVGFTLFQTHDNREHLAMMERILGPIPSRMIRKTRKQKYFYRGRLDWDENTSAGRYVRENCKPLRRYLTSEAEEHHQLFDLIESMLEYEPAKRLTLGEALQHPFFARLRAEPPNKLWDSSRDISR
Protocol: as §1, §2, §3, §4

[4] = molecular target: T3, CLK1 (Homo sapiens, UniProt P49759); assay: as above; assay type: cell-based; design: host or cells: HEK293 (HEK293T cultured)
T3 sequence (P49759 whole entry): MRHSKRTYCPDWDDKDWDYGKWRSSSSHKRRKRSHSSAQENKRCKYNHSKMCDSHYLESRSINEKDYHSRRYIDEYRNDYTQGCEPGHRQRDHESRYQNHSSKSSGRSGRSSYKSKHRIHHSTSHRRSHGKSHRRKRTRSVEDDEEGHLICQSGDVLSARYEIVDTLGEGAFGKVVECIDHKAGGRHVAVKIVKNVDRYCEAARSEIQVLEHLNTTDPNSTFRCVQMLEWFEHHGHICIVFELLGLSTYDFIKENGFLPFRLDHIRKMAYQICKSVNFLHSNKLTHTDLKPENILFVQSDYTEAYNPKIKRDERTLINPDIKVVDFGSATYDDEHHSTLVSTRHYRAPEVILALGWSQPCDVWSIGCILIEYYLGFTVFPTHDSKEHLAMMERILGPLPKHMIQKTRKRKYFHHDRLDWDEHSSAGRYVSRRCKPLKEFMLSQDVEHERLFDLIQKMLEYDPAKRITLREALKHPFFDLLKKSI
Protocol: as §1, §2, §3, §4

[5] = molecular target: CLK4 (Homo sapiens, UniProt Q9HAZ1); assay: as above; assay type: cell-based; design: host or cells: HEK293 (HEK293T cultured)
CLK4, sequence (Q9HAZ1 whole entry): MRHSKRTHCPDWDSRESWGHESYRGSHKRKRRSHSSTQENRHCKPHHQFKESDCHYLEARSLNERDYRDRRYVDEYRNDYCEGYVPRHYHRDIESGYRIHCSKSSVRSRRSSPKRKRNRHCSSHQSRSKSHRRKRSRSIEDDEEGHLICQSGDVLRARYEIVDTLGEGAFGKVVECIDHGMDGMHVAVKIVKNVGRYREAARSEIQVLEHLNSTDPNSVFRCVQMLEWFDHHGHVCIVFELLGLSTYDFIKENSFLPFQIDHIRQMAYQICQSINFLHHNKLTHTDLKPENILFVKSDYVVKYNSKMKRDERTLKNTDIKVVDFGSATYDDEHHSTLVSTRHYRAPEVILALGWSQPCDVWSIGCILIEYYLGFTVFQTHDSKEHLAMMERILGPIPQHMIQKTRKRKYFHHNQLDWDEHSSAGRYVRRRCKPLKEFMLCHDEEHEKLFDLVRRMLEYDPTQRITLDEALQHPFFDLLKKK
Protocol: as §1, §2, §3, §4

[6] = molecular target: T1, RET; assay: Z'-LYTE activity assay (ThermoFisher SelectScreen); assay type: biochemical; design: purchased SelectScreen Services (ThermoFisher); settings: [ATP] = Kmapp
Text: (§5) In vitro biochemical assays. Several small molecule assays were outsourced to SelectScreen Services (ThermoFisher) for STK33 and for off-target kinases (data sets are available on demand).
(§6) These assays are LanthaScreen (binding assay) and Z’-LYTE (activity assay). Dose-responses were done with at least 5 different concentrations in duplicates, and parameters were optimized by calculations described below and provided with standard errors. […]
(§7) Calculation of Ki values for kinase inhibitors from Z’-LYTE inhibition data. The Morrison equation with [ATP] = Kmapp for competitive inhibition (GraphPad Prism 7, San Diego, CA) was used to get Ki values. Since Kd and Ki values are defined the same way, in other words, Kd = [E] [I] / [EI] = Ki, Kd and Ki values can be compared. […]

[7] = molecular target: T2, CLK2; assay: Z'-LYTE activity assay (ThermoFisher SelectScreen); assay type: biochemical; design: purchased SelectScreen Services (ThermoFisher); settings: [ATP] = Kmapp
Text: as §5, §6, §7

[8] = molecular target: T3, CLK1; assay: Z'-LYTE activity assay (ThermoFisher SelectScreen); assay type: biochemical; design: purchased SelectScreen Services (ThermoFisher); settings: [ATP] = Kmapp
Text: as §5, §6, §7

[9] = Metabolic stability assay in liver microsomes (HLM); assay type: in vitro ADME, human
Protocol: (§8) Metabolic stability assay in liver microsomes. The stabilities of CDD-2110, CDD-2211, CDD-2212, CDD-2807, and CDD-3348 in liver microsomes with/without Uridine Diphosphate Glucuronic Acid (UDP-GA, a cofactor of UDP-glucuronosyltransferases) were performed and half-life was calculated as previously reported (36). Briefly, each CDD compound (2.0 μM) was incubated in the mouse or human liver microsomes (0.5 mg protein/mL) at 37°C in 1× PBS fortified with NADPH (1.0 mM) and with/without UDP-GA (2.5 mM). Alamethicin (25 µg/mL) as a pore forming agent was used for the glucuronidation (Table S2A). The samples were collected at specific time-points 0, 30, and 60 min in duplicate. The reactions were terminated by adding equivalent volume of ice-cold methanol (CH3OH) and vortexed. After centrifugation at 15000 g for 10 min, 3.0 μL of the supernatant was analyzed by Thermo TSQ Quantis MS coupled with a Thermo Vanquish UHPLC (San Jose, CA) equipped with a Luna C18 column (1 mm × 50 mm, 1.6 µm, Phenomenex, Torrance, CA). The column temperature was maintained at 40°C. CDD-2807 was monitored under the selected reaction monitoring (SRM) mode coupled with a positive electrospray ionization (ESI) source. The SRM ion pairs were 447→321 for CDD-2807.

[10] = Metabolic stability assay in liver microsomes (MLM); assay type: in vitro ADME, mouse; settings: for half-life at 2 µM: mouse, liver microsomes
Protocol: as §8

[11] = HEK293 cells, 2 hours incubation

STK33, sequence (Q9BYT3 whole entry): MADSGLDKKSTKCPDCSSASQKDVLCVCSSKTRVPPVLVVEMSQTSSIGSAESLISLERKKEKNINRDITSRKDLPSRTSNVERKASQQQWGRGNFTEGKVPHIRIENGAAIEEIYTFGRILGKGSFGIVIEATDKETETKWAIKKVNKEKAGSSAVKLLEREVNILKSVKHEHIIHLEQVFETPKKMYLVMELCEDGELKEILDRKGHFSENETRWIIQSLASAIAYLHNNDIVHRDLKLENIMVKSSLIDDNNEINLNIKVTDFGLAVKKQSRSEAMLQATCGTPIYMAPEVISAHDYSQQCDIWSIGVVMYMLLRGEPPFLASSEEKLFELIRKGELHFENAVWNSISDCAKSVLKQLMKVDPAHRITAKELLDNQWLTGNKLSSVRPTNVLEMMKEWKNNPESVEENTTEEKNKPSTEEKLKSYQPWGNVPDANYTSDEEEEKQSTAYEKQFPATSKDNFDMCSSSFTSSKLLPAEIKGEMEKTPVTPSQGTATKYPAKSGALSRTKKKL

## O=C(c1ccc2[nH]nc(C#Cc3ccccc3-c3ccccc3)c2c1)N1CC2(CCCNC2)C1 [CDD-2807]
[1]
  selectivity toward STK33 compared to CLK1, CLK2, CLK4, and RET: > 9 fold
[1]; [11]
  IC50: 9.2 nM
[2]; [11]
  IC50: 363 nM
[2]; selectivity vs STK33
  Fold NanoBRET IC50 RET over STK33 (in parentheses): 39 X
[3]; [11]
  IC50: 101 nM
[3]; selectivity vs STK33
  Fold NanoBRET IC50 CLK2 over STK33 (in parentheses): 11 X
[4]; [11]
  IC50: 116 nM
[4]; selectivity vs STK33
  Fold NanoBRET IC50 CLK1 over STK33 (in parentheses): 13 X
[5]; [11]
  IC50: 85 nM
[5]; selectivity vs STK33
  Fold NanoBRET IC50 CLK4 over STK33 (in parentheses): 9 X
[6]
  Ki: 0.3 nM
[7]
  Ki: 1.3 nM
[8]
  Ki: 3.1 nM
[9]; Phase I metabolism
  Metabolic stability in HLM: ~ 10 hours
[9]; Phases I and II metabolism
  Metabolic stability in HLM: ~ 6 hours
[9]; human, liver microsomes, NADPH with UDP-GA (2.5 mM), alamethicin, read-out: HLM, t1/2, liver microsomes with glucuronidation
  half-life at 2 µM: 6.47 h
[10]; 2.0 µM, 0.5 mg protein/mL, NADPH, data >60 min is an extrapolated estimate
  Metabolic stability MLM, t1/2: > 1 h
[10]; Phase I metabolism
  Metabolic stability in MLM: ~ 1 hour
[10]; Phases I and II metabolism
  Metabolic stability in MLM: ~ 50 minutes
[10]; 2.0 µM, 0.5 mg protein/mL, NADPH, data >60 min is an extrapolated estimate, read-out: Metabolic stability MLM, t1/2
  half-life at 2 µM: 1.18 h
[10]; NADPH with UDP-GA (2.5 mM), alamethicin, read-out: MLM, t1/2, liver microsomes with glucuronidation
  half-life at 2 µM: 0.833 h
